According to patent US9980910B2, “Enteric-coated sodium metabisulfite livestock feed additive for vomitoxin detoxification” (priority 2010, dated 2018):

Experiments:
pigs [1] = conditions: cited from earlier work
[2] = system: 25-50 lb pigs fed vomitoxin-contaminated corn; conditions: P<0.01
pigs [3] = conditions: feeding to pigs; cited from earlier work
66-278 lbs pigs = assay: Growth performance of 66-278 lbs pigs fed sodium metabisulfite in clean diets (F6_G07_01); format: in vivo; conditions: level increased from 0 to 0.5 to 1.0% in non-vomitoxin contaminated diets
From the text: The data presented in Table 2 confirms that toxic effects begin to occur between 0 and 0.5% sodium metabisulfite in the diet.

[4] = Destruction of vomitoxin by sodium metabisulfite in vitro at two pH levels
Method: Sodium metabisulfite was tested for its ability to destroy vomitoxin in vitro at different pH levels. […] For example, when tested at 10 lb/ton, sodium metabisulfite destroyed 70% of the measurable vomitoxin at pH 6.5, but none at pH 3.0. At 20 lbs/ton sodium metabisulfite destroyed over 97% of the vomitoxin at pH 6.5 but only 41% at pH 3.0. Destruction levels less than 10% are considered to be random variation in this assay and not related to treatment. […] Although the levels of sodium metabisulfite required to destroy vomitoxin in this in vitro assay are higher than the “safe” level of 0.35% determined in a previous referenced feeding trial in pigs, other studies (Tables 1 and 3) clearly show positive effects of sodium metabisulfite at levels of 0.125 to 0.25% in vomitoxin-contaminated diets.

[5] = diet containing approximately 5 ppm vomitoxin, 25-55 lb pigs
[6] = vomitoxin-contaminated diet, 5 to 20 lbs/ton of diet (0.25 to 1.0%)

## CC1=C[C@H]2O[C@@H]3[C@H](O)C[C@](C)([C@@]2(CO)[C@H](O)C1=O)[C@]31CO1 [Vomitoxin, deoxynivalenol]
Pigs [1]
  Vomitoxin level resulting in complete feed refusal, vomiting, immune suppression, and gastrointestinal lesions: above 5 ppm
[2]; [5]
  Reduction of daily feed intake: 20%
  Reduction of growth rate: 15%

## O=S([O-])S(=O)(=O)[O-].[Na+].[Na+] [sodium metabisulfite, Sodium metabisulfite]
Pigs [3]
  "no-effect" level (no toxic effects): 0.35 % of the diet
66-278 lbs pigs
  Average daily feed intake (effect in words): linearly reduced
[2]; [6]
  Average daily feed intake (ADFI) (effect in words): improves
  Average daily gain (ADG) (effect in words): improves
[4]; pH 3.0, metabisulfite 2.5 lbs/ton
  % destruction of vomitoxin: 4.2%
[4]; pH 3.0, metabisulfite 5 lbs/ton
  % destruction of vomitoxin: 0.9%
[4]; pH 3.0, metabisulfite 20 lbs/ton
  % destruction of vomitoxin: 41%
[4]; pH 6.5, metabisulfite 2.5 lbs/ton
  % destruction of vomitoxin: 0.0%
[4]; pH 6.5, metabisulfite 5 lbs/ton
  % destruction of vomitoxin: 0.0%
[4]; pH 6.5, metabisulfite 10 lbs/ton
  % destruction of vomitoxin: 70%
